In US6489469B1, “Method for storing or transporting erythritol solution” (Nikken Chemicals Co., Ltd., priority 1999, dated 2002):

Key:
[1] = tested on: Escherichia coli IFO 3972; experiment: Viable Count of Escherichia coli IFO 3972 in Erythritol Solution; assay type: cell-based
Experimental: (§1) Erythritol solutions of respective concentrations in the range of from 30 to 60% were prepared. To these were inoculated Staphylococcus aureus IFO 13276, Bacillus subtilis IFO 3134, and Escherichia coli IFO 3972 as bacteria, Candida albicans IFO 1549 and Saccharomyces cerevisiae ATCC 9763 as yeasts, Aspergillus niger IFO 6342, Aspergillus flavus IFO 6343, and Penicillium funiculosum IFO 6345 as fungi, respectively, in a population (concentration) of 10,000 cells/mL or more. After the inoculation, the solutions were stored at 30, 37, 45, 50, or 60° C., respectively, for 56 days and the number of viable cell was determined daily. The determination of the number of viable cell was performed by a method of coating 0.1 mL of appropriately diluted sample cultivation on an agar plate and cultivating and counting the number of viable cell (the number of colony) that grew after the cultivation.

[2] = tested on: Penicillium funiculosum IFO 6345; experiment: Viable Count of Penicillium funiculosum IFO 6345 in Erythritol Solution; assay type: cell-based
Experimental: as §1

SMILES: OC[C@@H](O)[C@@H](O)CO [Erythritol Solution, erythritol]
- The Number of Viable Cell ([1]; 30° C., 30% w/w, Day 0): 10000 or more cells/mL
- The Number of Viable Cell ([1]; 30° C., 30% w/w, Day 3): 10000 or more cells/mL
- The Number of Viable Cell ([1]; 30° C., 30% w/w, Day 7): 10000 or more cells/mL
- The Number of Viable Cell ([1]; 30° C., 30% w/w, Day 14): 7780 cells/mL
- The Number of Viable Cell ([1]; 30° C., 30% w/w, Day 28): 110 cells/mL
- The Number of Viable Cell ([1]; 30° C., 30% w/w, Day 56): 0 cells/mL
- The Number of Viable Cell ([1]; 30° C., 40% w/w, Day 0): 10000 or more cells/mL
- The Number of Viable Cell ([1]; 30° C., 40% w/w, Day 3): 10400 cells/mL
- The Number of Viable Cell ([1]; 30° C., 40% w/w, Day 7): 2820 cells/mL
- The Number of Viable Cell ([1]; 30° C., 40% w/w, Day 14): 420 cells/mL
- The Number of Viable Cell ([1]; 30° C., 40% w/w, Day 28): 0 cells/mL
- The Number of Viable Cell ([1]; 30° C., 40% w/w, Day 56): 0 cells/mL
- The Number of Viable Cell ([1]; 37° C., 30% w/w, Day 0): 10000 or more cells/mL
- The Number of Viable Cell ([1]; 37° C., 30% w/w, Day 3): 10000 or more cells/mL
- The Number of Viable Cell ([1]; 37° C., 30% w/w, Day 7): 8270 cells/mL
- The Number of Viable Cell ([1]; 37° C., 30% w/w, Day 14): 0 cells/mL
- The Number of Viable Cell ([1]; 37° C., 30% w/w, Day 28): 0 cells/mL
- The Number of Viable Cell ([1]; 37° C., 30% w/w, Day 56): 0 cells/mL
- The Number of Viable Cell ([1]; 37° C., 40% w/w, Day 0): 10000 or more cells/mL
- The Number of Viable Cell ([1]; 37° C., 40% w/w, Day 3): 11100 cells/mL
- The Number of Viable Cell ([1]; 37° C., 40% w/w, Day 7): 140 cells/mL
- The Number of Viable Cell ([1]; 37° C., 40% w/w, Day 14): 0 cells/mL
- The Number of Viable Cell ([1]; 37° C., 40% w/w, Day 28): 0 cells/mL
- The Number of Viable Cell ([1]; 37° C., 40% w/w, Day 56): 0 cells/mL
- The Number of Viable Cell ([1]; 45° C., 30% w/w, Day 0): 10000 or more cells/mL
- The Number of Viable Cell ([1]; 45° C., 30% w/w, Day 3): 450 cells/mL
- The Number of Viable Cell ([1]; 45° C., 30% w/w, Day 7): 0 cells/mL
- The Number of Viable Cell ([1]; 45° C., 30% w/w, Day 14): 0 cells/mL
- The Number of Viable Cell ([1]; 45° C., 30% w/w, Day 28): 0 cells/mL
- The Number of Viable Cell ([1]; 45° C., 30% w/w, Day 56): 0 cells/mL
- The Number of Viable Cell ([1]; 45° C., 40% w/w, Day 0): 10000 or more cells/mL
- The Number of Viable Cell ([1]; 45° C., 40% w/w, Day 3): 0 cells/mL
- The Number of Viable Cell ([1]; 45° C., 40% w/w, Day 7): 0 cells/mL
- The Number of Viable Cell ([1]; 45° C., 40% w/w, Day 14): 0 cells/mL
- The Number of Viable Cell ([1]; 45° C., 40% w/w, Day 28): 0 cells/mL
- The Number of Viable Cell ([1]; 45° C., 40% w/w, Day 56): 0 cells/mL
- The Number of Viable Cell ([1]; 45° C., 50% w/w, Day 0): 10000 or more cells/mL
- The Number of Viable Cell ([1]; 45° C., 50% w/w, Day 3): 0 cells/mL
- The Number of Viable Cell ([1]; 45° C., 50% w/w, Day 7): 0 cells/mL
- The Number of Viable Cell ([1]; 45° C., 50% w/w, Day 14): 0 cells/mL
- The Number of Viable Cell ([1]; 45° C., 50% w/w, Day 28): 0 cells/mL
- The Number of Viable Cell ([1]; 45° C., 50% w/w, Day 56): 0 cells/mL
- The Number of Viable Cell ([1]; 50° C., 30% w/w, Day 0): 10000 or more cells/mL
- The Number of Viable Cell ([1]; 50° C., 30% w/w, Day 3): 0 cells/mL
- The Number of Viable Cell ([1]; 50° C., 30% w/w, Day 7): 0 cells/mL
- The Number of Viable Cell ([1]; 50° C., 30% w/w, Day 14): 0 cells/mL
- The Number of Viable Cell ([1]; 50° C., 30% w/w, Day 28): 0 cells/mL
- The Number of Viable Cell ([1]; 50° C., 30% w/w, Day 56): 0 cells/mL
- The Number of Viable Cell ([1]; 50° C., 40% w/w, Day 0): 10000 or more cells/mL
- The Number of Viable Cell ([1]; 50° C., 40% w/w, Day 3): 0 cells/mL
- The Number of Viable Cell ([1]; 50° C., 40% w/w, Day 7): 0 cells/mL
- The Number of Viable Cell ([1]; 50° C., 40% w/w, Day 14): 0 cells/mL
- The Number of Viable Cell ([1]; 50° C., 40% w/w, Day 28): 0 cells/mL
- The Number of Viable Cell ([1]; 50° C., 40% w/w, Day 56): 0 cells/mL
- The Number of Viable Cell ([1]; 50° C., 50% w/w, Day 0): 10000 or more cells/mL
- The Number of Viable Cell ([1]; 50° C., 50% w/w, Day 3): 0 cells/mL
- The Number of Viable Cell ([1]; 50° C., 50% w/w, Day 7): 0 cells/mL
- The Number of Viable Cell ([1]; 50° C., 50% w/w, Day 14): 0 cells/mL
- The Number of Viable Cell ([1]; 50° C., 50% w/w, Day 28): 0 cells/mL
- The Number of Viable Cell ([1]; 50° C., 50% w/w, Day 56): 0 cells/mL
- growth of the microbes ([1]; temperature of 50° C. or more): prevented from growing
- time after which microbes died ([1]; temperature of 50° C. or more): 3 days
- The Number of Viable Cell ([2]; 37° C., 30% w/w, Day 0): ≥ 10000 cells/mL
- The Number of Viable Cell ([2]; 37° C., 30% w/w, Day 3): ≥ 10000 cells/mL
- The Number of Viable Cell ([2]; 37° C., 30% w/w, Day 7): ≥ 10000 cells/mL
- The Number of Viable Cell ([2]; 37° C., 30% w/w, Day 14): ≥ 10000 cells/mL
- The Number of Viable Cell ([2]; 37° C., 30% w/w, Day 28): ≥ 10000 cells/mL
- The Number of Viable Cell ([2]; 37° C., 30% w/w, Day 56): ≥ 10000 cells/mL
- The Number of Viable Cell ([2]; 37° C., 40% w/w, Day 0): ≥ 10000 cells/mL
- The Number of Viable Cell ([2]; 37° C., 40% w/w, Day 3): ≥ 10000 cells/mL
- The Number of Viable Cell ([2]; 37° C., 40% w/w, Day 7): ≥ 10000 cells/mL
- The Number of Viable Cell ([2]; 37° C., 40% w/w, Day 14): ≥ 10000 cells/mL
- The Number of Viable Cell ([2]; 37° C., 40% w/w, Day 28): ≥ 10000 cells/mL
- The Number of Viable Cell ([2]; 37° C., 40% w/w, Day 56): ≥ 10000 cells/mL
- The Number of Viable Cell ([2]; 45° C., 30% w/w, Day 0): ≥ 10000 cells/mL
- The Number of Viable Cell ([2]; 45° C., 30% w/w, Day 3): 370 cells/mL
- The Number of Viable Cell ([2]; 45° C., 30% w/w, Day 7): 0 cells/mL
- The Number of Viable Cell ([2]; 45° C., 30% w/w, Day 14): 0 cells/mL
- The Number of Viable Cell ([2]; 45° C., 30% w/w, Day 28): 0 cells/mL
- The Number of Viable Cell ([2]; 45° C., 30% w/w, Day 56): 0 cells/mL
- The Number of Viable Cell ([2]; 45° C., 40% w/w, Day 0): ≥ 10000 cells/mL
- The Number of Viable Cell ([2]; 45° C., 40% w/w, Day 3): 750 cells/mL
- The Number of Viable Cell ([2]; 45° C., 40% w/w, Day 7): 0 cells/mL
- The Number of Viable Cell ([2]; 45° C., 40% w/w, Day 14): 0 cells/mL
- The Number of Viable Cell ([2]; 45° C., 40% w/w, Day 28): 0 cells/mL
- The Number of Viable Cell ([2]; 45° C., 40% w/w, Day 56): 0 cells/mL
- The Number of Viable Cell ([2]; 45° C., 50% w/w, Day 0): ≥ 10000 cells/mL
- The Number of Viable Cell ([2]; 45° C., 50% w/w, Day 3): 1260 cells/mL
- The Number of Viable Cell ([2]; 45° C., 50% w/w, Day 7): 0 cells/mL
- The Number of Viable Cell ([2]; 45° C., 50% w/w, Day 14): 0 cells/mL
- The Number of Viable Cell ([2]; 45° C., 50% w/w, Day 28): 0 cells/mL
- The Number of Viable Cell ([2]; 45° C., 50% w/w, Day 56): 0 cells/mL
- The Number of Viable Cell ([2]; 50° C., 30% w/w, Day 0): ≥ 10000 cells/mL
- The Number of Viable Cell ([2]; 50° C., 30% w/w, Day 3): 0 cells/mL
- The Number of Viable Cell ([2]; 50° C., 30% w/w, Day 7): 0 cells/mL
- The Number of Viable Cell ([2]; 50° C., 30% w/w, Day 14): 0 cells/mL
- The Number of Viable Cell ([2]; 50° C., 30% w/w, Day 28): 0 cells/mL
- The Number of Viable Cell ([2]; 50° C., 30% w/w, Day 56): 0 cells/mL
- The Number of Viable Cell ([2]; 50° C., 40% w/w, Day 0): ≥ 10000 cells/mL
- The Number of Viable Cell ([2]; 50° C., 40% w/w, Day 3): 0 cells/mL
- The Number of Viable Cell ([2]; 50° C., 40% w/w, Day 7): 0 cells/mL
- The Number of Viable Cell ([2]; 50° C., 40% w/w, Day 14): 0 cells/mL
- The Number of Viable Cell ([2]; 50° C., 40% w/w, Day 28): 0 cells/mL
- The Number of Viable Cell ([2]; 50° C., 40% w/w, Day 56): 0 cells/mL
- The Number of Viable Cell ([2]; 50° C., 50% w/w, Day 0): ≥ 10000 cells/mL
- The Number of Viable Cell ([2]; 50° C., 50% w/w, Day 3): 0 cells/mL
- The Number of Viable Cell ([2]; 50° C., 50% w/w, Day 7): 0 cells/mL
- The Number of Viable Cell ([2]; 50° C., 50% w/w, Day 14): 0 cells/mL
- The Number of Viable Cell ([2]; 50° C., 50% w/w, Day 28): 0 cells/mL
- The Number of Viable Cell ([2]; 50° C., 50% w/w, Day 56): 0 cells/mL
- growth of the microbes ([2]; temperature of 50° C. or more): prevented from growing
- time after which microbes died ([2]; temperature of 50° C. or more): 3 days
